{
  "source": "patent US7354904B2",
  "about": "“Bacteriocin inducer peptides” (priority 2005, dated 2008)",
  "system": "Enterococcus faecium LWP 50-52",
  "experiment": "Influence of signal peptide on bacteriocin 50-52 production, flask culture (fraction protein at 215 nm, activity by spot-test against C. jejuni and S. enteritidis)",
  "format": "cell-based",
  "key": {"[1]": {"details": "LWP 50-52 + LWP 320, peptide 0.001 mg/ml"}, "[2]": {"details": "LWP 50-52 + LWP 320, peptide 0.001 mg/ml added after about 2 hours"}, "[3]": {"details": "LWP 50-52 + LWP 320, peptide 0.001 mg/ml added after about 4 hours"}, "[4]": {"details": "LWP 50-52 + LWP 320, peptide 0.001 mg/ml added after about 6 hours"}, "[5]": {"details": "LWP 50-52 + LWP 320, peptide 0.01 mg/ml"}, "[6]": {"details": "LWP 50-52 + LWP 320, peptide 0.01 mg/ml added after about 2 hours"}, "[7]": {"details": "LWP 50-52 + LWP 320, peptide 0.01 mg/ml added after about 4 hours"}, "[8]": {"details": "LWP 50-52 + LWP 320, peptide 0.01 mg/ml added after about 6 hours"}, "[9]": {"details": "LWP 50-52 + LWP 320, peptide 0.1 mg/ml"}, "[10]": {"details": "LWP 50-52 + LWP 320, peptide 0.1 mg/ml added after about 2 hours"}, "[11]": {"details": "LWP 50-52 + LWP 320, peptide 0.1 mg/ml added after about 4 hours"}, "[12]": {"details": "LWP 50-52 + LWP 320, peptide 0.1 mg/ml added after about 6 hours"}, "[13]": {"details": "LWP 50-52, no inducer, peptide 0.001 mg/ml"}},
  "data": [
    {"sequence": "TNVTKSWWVLAGCNQVVASNCNCGNVKGLT (listed as Enterococcus faecium) [LWP 50-52 Signal Peptide, signal peptide isolated from Enterococcus faecium LWP 50-52, stimulates bacteriocin 50-52 production]", "values": [
      {"measurement": "Activity", "setting": "[1]", "value": "819,200 AU/ml"},
      {"measurement": "Protein Concentration", "setting": "[1]", "value": 0.25, "unit": "mg/mL"},
      {"measurement": "Protein increase vs. Control", "setting": "[1]", "value": 1},
      {"measurement": "Specific Activity", "setting": "[1]", "value": "3,276,800 AU/mg"},
      {"measurement": "mg protein/liter", "setting": "[1]", "value": 82.5, "unit": "mg protein/liter"},
      {"measurement": "Activity", "setting": "[2]", "value": "819,200 AU/ml"},
      {"measurement": "Protein Concentration", "setting": "[2]", "value": 0.25, "unit": "mg/mL"},
      {"measurement": "Protein increase vs. Control", "setting": "[2]", "value": 1},
      {"measurement": "Specific Activity", "setting": "[2]", "value": "3,276,800 AU/mg"},
      {"measurement": "mg protein/liter", "setting": "[2]", "value": 82.5, "unit": "mg protein/liter"},
      {"measurement": "Activity", "setting": "[3]", "value": "819,200 AU/ml"},
      {"measurement": "Protein Concentration", "setting": "[3]", "value": 0.25, "unit": "mg/mL"},
      {"measurement": "Protein increase vs. Control", "setting": "[3]", "value": 1},
      {"measurement": "Specific Activity", "setting": "[3]", "value": "3,276,800 AU/mg"},
      {"measurement": "mg protein/liter", "setting": "[3]", "value": 82.5, "unit": "mg protein/liter"},
      {"measurement": "Activity", "setting": "[4]", "value": "819,200 AU/ml"},
      {"measurement": "Protein Concentration", "setting": "[4]", "value": 0.25, "unit": "mg/mL"},
      {"measurement": "Protein increase vs. Control", "setting": "[4]", "value": 1},
      {"measurement": "Specific Activity", "setting": "[4]", "value": "3,276,800 AU/mg"},
      {"measurement": "mg protein/liter", "setting": "[4]", "value": 82.5, "unit": "mg protein/liter"},
      {"measurement": "Activity", "setting": "[5]", "value": "1,638,400 AU/ml"},
      {"measurement": "Protein Concentration", "setting": "[5]", "value": 1.0, "unit": "mg/mL"},
      {"measurement": "Protein increase vs. Control", "setting": "[5]", "value": 4},
      {"measurement": "Specific Activity", "setting": "[5]", "value": "1,638,400 AU/mg"},
      {"measurement": "mg protein/liter", "setting": "[5]", "value": 330.0, "unit": "mg protein/liter"},
      {"measurement": "Activity", "setting": "[6]", "value": "3,276,800 AU/ml"},
      {"measurement": "Protein Concentration", "setting": "[6]", "value": 1.07, "unit": "mg/mL"},
      {"measurement": "Protein increase vs. Control", "setting": "[6]", "value": 4.28},
      {"measurement": "Specific Activity", "setting": "[6]", "value": "3,062,429 AU/mg"},
      {"measurement": "mg protein/liter", "setting": "LWP 50-52 + LWP 320, peptide 0.01 mg/ml added after about 2 hours, listed as LWP 320 Signal Peptide", "value": 353.1, "unit": "mg protein/liter"},
      {"measurement": "mg protein/liter", "setting": "LWP 50-52 + LWP 320, peptide 0.01 mg/ml added after about 2 hours, listed as signal peptide from LWP 50-52", "value": "about 353.1 mg protein/liter"},
      {"measurement": "Activity", "setting": "[7]", "value": "1,638,400 AU/ml"},
      {"measurement": "Protein Concentration", "setting": "[7]", "value": 1.0, "unit": "mg/mL"},
      {"measurement": "Protein increase vs. Control", "setting": "[7]", "value": 4},
      {"measurement": "Specific Activity", "setting": "[7]", "value": "1,638,400 AU/mg"},
      {"measurement": "mg protein/liter", "setting": "[7]", "value": 330.0, "unit": "mg protein/liter"},
      {"measurement": "Activity", "setting": "[8]", "value": "1,638,400 AU/ml"},
      {"measurement": "Protein Concentration", "setting": "[8]", "value": 1.0, "unit": "mg/mL"},
      {"measurement": "Protein increase vs. Control", "setting": "[8]", "value": 4},
      {"measurement": "Specific Activity", "setting": "[8]", "value": "1,638,400 AU/mg"},
      {"measurement": "mg protein/liter", "setting": "[8]", "value": 330.0, "unit": "mg protein/liter"},
      {"measurement": "Activity", "setting": "[9]", "value": "819,200 AU/ml"},
      {"measurement": "Protein Concentration", "setting": "[9]", "value": 0.25, "unit": "mg/mL"},
      {"measurement": "Protein increase vs. Control", "setting": "[9]", "value": 1},
      {"measurement": "Specific Activity", "setting": "[9]", "value": "3,276,800 AU/mg"},
      {"measurement": "mg protein/liter", "setting": "[9]", "value": 82.5, "unit": "mg protein/liter"},
      {"measurement": "Activity", "setting": "[10]", "value": "819,200 AU/ml"},
      {"measurement": "Protein Concentration", "setting": "[10]", "value": 0.25, "unit": "mg/mL"},
      {"measurement": "Protein increase vs. Control", "setting": "[10]", "value": 1},
      {"measurement": "Specific Activity", "setting": "[10]", "value": "3,276,800 AU/mg"},
      {"measurement": "mg protein/liter", "setting": "[10]", "value": 82.5, "unit": "mg protein/liter"},
      {"measurement": "Activity", "setting": "[11]", "value": "819,200 AU/ml"},
      {"measurement": "Protein Concentration", "setting": "[11]", "value": 0.25, "unit": "mg/mL"},
      {"measurement": "Protein increase vs. Control", "setting": "[11]", "value": 1},
      {"measurement": "Specific Activity", "setting": "[11]", "value": "3,276,800 AU/mg"},
      {"measurement": "mg protein/liter", "setting": "[11]", "value": 82.5, "unit": "mg protein/liter"},
      {"measurement": "Activity", "setting": "[12]", "value": "819,200 AU/ml"},
      {"measurement": "Protein Concentration", "setting": "[12]", "value": 0.25, "unit": "mg/mL"},
      {"measurement": "Protein increase vs. Control", "setting": "[12]", "value": 1},
      {"measurement": "Specific Activity", "setting": "[12]", "value": "3,276,800 AU/mg"},
      {"measurement": "mg protein/liter", "setting": "[12]", "value": 82.5, "unit": "mg protein/liter"},
      {"measurement": "Activity", "setting": "[13]", "value": "819,200 AU/ml"},
      {"measurement": "Protein Concentration", "setting": "[13]", "value": 0.25, "unit": "mg/mL"}
    ]}
  ]
}
